From patent publication US10919937B2, “Bicyclic peptide ligands and uses thereof” (BicycleTx Limited, priority 2018, dated 2021)
Where two headings read alike, the source gives them in different places. *1 amine or outer side, *2 acyl side, *3 side chain or, on linkers, in order; H or OH if unused. Where a SMILES comes first, the peptide text is derived from it. Bridges are numbered along the chain shown (N, C = ends). [ ]: non-standard residue; d: D form. X11 = O=C(C[*:1])N1CCN(c2ccc(-c3nc(-c4ccc(N5CCN(C(=O)C[*:2])CC5)cc4)nc(-c4ccc(N5CCN(C(=O)C[*:3])CC5)cc4)n3)cc2)CC1; X14 = CC(C)(C)[C@H](N[*:3])C(=O)C[C@@H](CSCc1ccc(-c2nc(-c3ccc(C[*:1])cc3)nc(-c3ccc(C[*:2])cc3)n2)cc1)C(N)=O; X10 = O=C(C[*:1])N1CCC(N2CCN(c3nc(N4CCN(C5CCN(C(=O)C[*:2])CC5)CC4)nc(N4CCN(C5CCN([*:3])CC5)CC4)n3)CC2)CC1; X12 = CC(C)(C)[C@H](N[*:3])C(=O)C[C@@H](CSCc1ccc(CN(Cc2ccc(C[*:1])cc2)Cc2ccc(C[*:2])cc2)cc1)C(N)=O; X6 = O=C(C[*:1])N1Cc2cccc(c2)CN(C(=O)C[*:2])Cc2cccc(c2)CN(C(=O)C[*:3])Cc2cccc(c2)C1; X3 = CC(C)(C)[C@H](N[*:1])C(=O)C[C@@H](CSCc1ccc(C(=O)[*:2])cc1)C(N)=O; X1 = c1cc(-c2nc(-c3ccc(C[*:2])cc3)nc(-c3ccc(C[*:3])cc3)n2)ccc1C[*:1]; X4 = O=C(c1ccc(C[*:1])cc1)N1CN(C(=O)c2ccc(C[*:2])cc2)CN([*:3])C1; X9 = CC(C)(C)[C@H](N[*:1])C(=O)C[C@@H](CSCC(=O)[*:2])C(N)=O; 1Nal = N[C@@H](Cc1cccc2ccccc12)C(=O)O; TBMB = c1c(C[*:1])cc(C[*:3])cc1C[*:2]; Tle = CC(C)(C)[C@H](N)C(=O)O

Columns and labels:
[1] = target: CAIX (Homo sapiens, UniProt Q16790); experiment: CAIX Competition Binding Assay (competition fluorescence polarization)
Experimental: CAIX Competition Binding Assay. Affinity of the peptides of the invention for human CAIX (Ki) is determined using a competition fluorescence polarization assay analogous to that described in Dubois et al. (2011) Radiotherapy and Oncology 99(3), 424-43 using A-(CAECWIDGWVPC)-A-Sar6-K(Fl), (SEQ ID NO: 11), as the fluorescent ligand.
Compounds described as “B” have a K, equal to or greater than 0.5 μM and less than 1 μM. Compounds described as “C” have a K, equal to or greater than 1 μM and less than 10 μM. Compounds described as “D” have a K, equal to or greater than 10 μM.

[2] = target: MT1-MMP hemopexin domain (Homo sapiens, UniProt P50281); experiment: MT1-MMP Direct Binding Fluorescence Polarization (Anisotropy) Assay; settings: MT1-MMP direct binding FP, n=2
Experimental: Direct Binding Fluorescence Polarization or Anisotropy Assays are performed by titrating a constant concentration of fluorescent tracer (here, the fluoresceinated bicyclic peptide to be studied) with its binding partner (here, the MT1-MMP hemopexin domain). As the concentration of binding partner increases during the titration, the polarization signal changes in proportion to the fraction of bound and unbound material. This allows determination of […] (Kd) quantitatively. Assay data can be fit using standard ligand binding equations.
Typically, concentrations of the tracer are ideally well below the Kd of the tracer:titrant pair, and concentrations chosen are usually at ˜1 nM or less. The titrant (binding partner) concentration is varied from 0.1 nM up to typically 5 μM. The range is chosen such that the maximum change in fluorescent polarization can be observed. Buffers employed are phosphate buffered saline in the presence of 0.01% Tween. Experiments were run in black 384 well low-bind/low volume plates (Corning 3820), and the fluorescent polarization signal was measured using a BMG Pherastar FS plate reader. Fluorescent tracers referred to in the text are bicyclic peptides that have been fluoresceinated using 5,6-carboxyfluorescein. Fluoresceination may be performed on the N-terminal amino group of the peptide, which is separated from the bicycle core sequence by a sarcosine spacer (usually Sar5). This can be done during Fmoc solid phase synthesis or post-synthetically (after cyclization with the molecular scaffold reagent and purification) if the N-terminal amino group is unique to the peptide. Fluoresceination can also be performed on the C-terminus, usually on a Lysine introduced as the first C-terminal residue, which is then separated from the bicycle core sequence by a sarcosine spacer (usually Sar6). Thus, N-terminal tracers can have a molecular format described as Fluo-Gly-Sar5-A(BicycleCoreSequence), and (BicycleCoreSequence)-A-Sar6-K(Fluo) for a C-terminally fluoresceinated construct.

[3] = human CAIX, competition FP, n = 2, read-out: Ki

For `CC(C)[C@@H]1NC(=O)[C@H](Cc2c[nH]c3ccccc23)NC(=O)[C@@H]2CSCC(=O)N3Cc4cccc(c4)CN(Cc4cccc(c4)CN(Cc4cccc(c4)C3)C(=O)CSC[C@H](NC(=O)[C@H](C)NC(=O)CN(C)C(=O)CN(C)C(=O)CN(C)C(=O)CN(C)C(=O)CN(C)C(=O)CN(C)C(=O)CN(C)C(=O)CN(C)C(=O)CN(C)C(=O)CN(C)C(=O)CCN)C(=O)N[C@@H]([C@@H](C)O)C(=O)N[C@@H](CCC(=O)O)C(=O)N2)C(=O)CSC[C@@H](C(N)=O)NC(=O)[C@@H]2CCCN2C(=O)[C@H](C(C)C)NC(=O)[C@H](Cc2c[nH]c3ccccc23)NC(=O)CNC(=O)[C@H](CC(=O)O)NC1=O` [I-23], which Ki [1, 3] is on record?
The Ki was over 10000 nM.

`C[C@H](N)C(=O)N[C@H]1CSCC(=O)N2Cc3cccc(c3)CN3Cc4cccc(c4)CN(Cc4cccc(c4)C2)C(=O)CSC[C@H](NC(=O)[C@@H](C)NC(=O)[C@H](Cc2cccc4ccccc24)NC(=O)[C@H](CCC(=O)O)NC(=O)[C@H](CC(N)=O)NC(=O)[C@@H](C)NC1=O)C(=O)N[C@@H](CCC(=O)O)C(=O)N[C@@H](CC(=O)O)C(=O)N[C@@H](Cc1ccccc1)C(=O)N[C@@H](Cc1ccc(O)cc1)C(=O)N[C@@H](CC(=O)O)C(=O)N[C@@H](C(C)(C)C)C(=O)N[C@H](C(N)=O)CSCC3=O` [I-44] (H-AC[dA]NE[1Nal][dA]CEDFYD[Tle]C-NH2; linker 2-8-15 via X6) was tested. Which Ki [2] did it give?
The Ki was at least 10000 nM.

Which Ki [2] does the source give for `C[C@H](N)C(=O)N[C@H]1CSCc2ccc(cc2)-c2nc3nc(n2)-c2ccc(cc2)CSC[C@H](NC(=O)[C@@H](C)NC(=O)[C@H](Cc2cccc4ccccc24)NC(=O)[C@H](CCC(=O)O)NC(=O)[C@H](CC(N)=O)NC(=O)[C@@H](C)NC1=O)C(=O)N[C@@H](CCC(=O)O)C(=O)N[C@@H](CC(=O)O)C(=O)N[C@@H](Cc1ccccc1)C(=O)N[C@@H](Cc1ccc(O)cc1)C(=O)N[C@@H](CC(=O)O)C(=O)N[C@@H](C(C)(C)C)C(=O)C[C@H](C(N)=O)CSCc1ccc-3cc1` [I-90] (H-AC[dA]NE[1Nal][dA]CEDFYD; linker 2-8-C via X14) here?
The Ki was under 500 nM.

`C[C@H](N)C(=O)N[C@H]1CSCC(=O)N2CCC(CC2)N2CCN(CC2)c2nc3nc(n2)N2CCN(CC2)C2CCN(CC2)C(=O)CSC[C@H](NC(=O)[C@@H](C)NC(=O)[C@H](Cc2cccc4ccccc24)NC(=O)[C@H](CCC(=O)O)NC(=O)[C@H](CC(N)=O)NC(=O)[C@@H](C)NC1=O)C(=O)N[C@@H](CCC(=O)O)C(=O)N[C@@H](CC(=O)O)C(=O)N[C@@H](Cc1ccccc1)C(=O)N[C@@H](Cc1ccc(O)cc1)C(=O)N[C@@H](CC(=O)O)C(=O)N[C@@H](C(C)(C)C)C(=O)C[C@H](C(N)=O)CSCC(=O)N1CCC(CC1)N1CCN3CC1` [I-91] (H-AC[dA]NE[1Nal][dA]CEDFYD[X9]; linker 2-8-C via X10) was tested. Which Ki [2] did it give?
Its Ki is under 500 nM.

For `C[C@H](N)C(=O)N[C@H]1CSCc2ccc(cc2)C(=O)N2CN3CN(C2)C(=O)c2ccc(cc2)CSC[C@H](NC(=O)[C@@H](C)NC(=O)[C@H](Cc2cccc4ccccc24)NC(=O)[C@H](CCC(=O)O)NC(=O)[C@H](CC(N)=O)NC(=O)[C@@H](C)NC1=O)C(=O)N[C@@H](CCC(=O)O)C(=O)N[C@@H](CC(=O)O)C(=O)N[C@@H](Cc1ccccc1)C(=O)N[C@@H](Cc1ccc(O)cc1)C(=O)N[C@@H](CC(=O)O)C(=O)N[C@@H](C(C)(C)C)C(=O)C[C@H](C(N)=O)CSCc1ccc(cc1)C3=O` [I-93] (H-AC[dA]NE[1Nal][dA]CEDFYD[X3]; linker 2-8-C via X4), which Ki [2] is on record?
Its Ki is under 500 nM.

How did the Ki [2] turn out when `C[C@H](N)C(=O)N[C@H]1CSCC(=O)N2CCN(CC2)c2ccc(cc2)-c2nc3nc(n2)-c2ccc(cc2)N2CCN(CC2)C(=O)CSC[C@H](NC(=O)[C@@H](C)NC(=O)[C@H](Cc2cccc4ccccc24)NC(=O)[C@H](CCC(=O)O)NC(=O)[C@H](CC(N)=O)NC(=O)[C@@H](C)NC1=O)C(=O)N[C@@H](CCC(=O)O)C(=O)N[C@@H](CC(=O)O)C(=O)N[C@@H](Cc1ccccc1)C(=O)N[C@@H](Cc1ccc(O)cc1)C(=O)N[C@@H](CC(=O)O)C(=O)N[C@@H](C(C)(C)C)C(=O)N[C@H](C(N)=O)CSCC(=O)N1CCN(CC1)c1ccc-3cc1` [I-94] (H-AC[dA]NE[1Nal][dA]CEDFYD[Tle]C-NH2; linker 2-8-15 via X11) was run?
The Ki was under 500 nM.

With `C[C@H](N)C(=O)N[C@H]1CSCc2ccc(cc2)CN2Cc3ccc(cc3)CSC[C@@H](C(N)=O)CC(=O)[C@H](C(C)(C)C)NC(=O)[C@H](CC(=O)O)NC(=O)[C@H](Cc3ccc(O)cc3)NC(=O)[C@H](Cc3ccccc3)NC(=O)[C@H](CC(=O)O)NC(=O)[C@H](CCC(=O)O)NC(=O)[C@H](CSCc3ccc(cc3)C2)NC(=O)[C@@H](C)NC(=O)[C@H](Cc2cccc3ccccc23)NC(=O)[C@H](CCC(=O)O)NC(=O)[C@H](CC(N)=O)NC(=O)[C@@H](C)NC1=O` [I-96] (H-AC[dA]NE[1Nal][dA]CEDFYD; linker 2-8-C via X12) as the compound, how does the Ki [2] read?
Its Ki is under 500 nM.

With `CC(=O)N[C@H]1CSCc2ccc(cc2)-c2nc3nc(n2)-c2ccc(cc2)CSC[C@H](NC(=O)[C@H](CCC(=O)O)NC(=O)[C@H]([C@@H](C)O)NC1=O)C(=O)N[C@@H](Cc1c[nH]c2ccccc12)C(=O)N[C@@H](C(C)C)C(=O)N[C@@H](CC(=O)O)C(=O)NCC(=O)N[C@@H](Cc1c[nH]c2ccccc12)C(=O)N[C@@H](C(C)C)C(=O)N1CCC[C@H]1C(=O)N[C@H](C(N)=O)CSCc1ccc-3cc1` [I-98] (Ac-CTECWVDGWVPC-NH2; linker 1-4-12 via X1) as the compound, how does the Ki [1, 3] read?
Its Ki is under 500 nM.

With `CC(=O)N[C@H]1CSCc2cc3cc(c2)CSC[C@@H](C(N)=O)NC(=O)[C@@H]2CCCN2C(=O)[C@H](C(C)C)NC(=O)[C@H](Cc2c[nH]c4ccccc24)NC(=O)CNC(=O)[C@H](CC(=O)O)NC(=O)[C@H](C(C)C)NC(=O)[C@H](Cc2c[nH]c4ccccc24)NC(=O)[C@H](Cc2ccc(cc2)OC3)NC(=O)[C@H](CCC(=O)O)NC(=O)[C@H]([C@@H](C)O)NC1=O` [I-108] (Ac-CTEYWVDGWVPC-NH2; linker 1-4-12 via TBMB) as the compound, how does the Ki [1] read?
The Ki was under 500 nM.

How did the Ki [1, 3] turn out when `CC(=O)N[C@H]1Cc2ccc(cc2)OCc2cc3cc(c2)CSC[C@H](NC(=O)[C@H](CCC(=O)O)NC(=O)[C@H]([C@@H](C)O)NC1=O)C(=O)N[C@@H](Cc1c[nH]c2ccccc12)C(=O)N[C@@H](C(C)C)C(=O)N[C@@H](CC(=O)O)C(=O)NCC(=O)N[C@@H](Cc1c[nH]c2ccccc12)C(=O)N[C@@H](C(C)C)C(=O)N1CCC[C@H]1C(=O)N[C@H](C(N)=O)Cc1ccc(cc1)OC3` [I-109] (Ac-YTECWVDGWVPY-NH2; linker 1-4-12 via TBMB) was run?
The Ki was 500 to 1000 nM.
